Source: paper PMC3388080 (PLoS ONE, 2012)
Marks after values point to notes of the source that are not given here.

System: male Sprague-Dawley rats
Assay: EEG/EMG/Tcore/LMA telemetry sleep study 1 (SB-334867 vs ZOL)
Format: in vivo, rat
Experimental: All rodent electroencephalograph (EEG) studies were performed at SRI International. Three groups of eight male Sprague-Dawley rats (300±25 g; Charles River, Wilmington, MA) were implanted with chronic recording devices (F40-EET, Data Sciences Inc., St Paul, MN) for continuous recordings of EEG, electromyograph (EMG), core body temperature (Tcore), and LMA via telemetry as previously described. Data recording and scoring were performed as previously reported (see also Supplemental Material and Methods). The EEG and EMG data were scored in 10 sec epochs for waking (W), rapid eye movement sleep (REM), and non-REM sleep (NR). Tcore and LMA (counts per minute) were analyzed as hourly means. Data from the EEG studies are reported in hourly means such that the hourly time ZT1 refers to the hour between time points ZT0 and ZT1.
For each of the three separate studies, a repeated measures counter-balanced design was employed in which each rat received five separate dosings. […] All dosings were administered ip in a volume of 2 ml/kg. A minimum of 3 d elapsed between doses. Dosing occurred during the middle of the rats’ normal active period at the start of ZT19 and was typically completed within 10 min. Animals were continuously recorded for 6 h prior to dosing and for 18 h following dosing.

Compound: Cc1nc2ccc(NC(=O)Nc3ccnc4cccnc34)cc2o1.Cl [SB-334867, 1-(2-methylbenzoxazol-6-yl)-3-[1], [5]naphthyridin-4-yl-urea hydrochloride]
- cumulative NR (in words) (3 and 30 mg/kg ip, first 4 and 6 h periods): increased cumulative NR
- NR bout duration (6 h Average, 3 mg/kg ip): 1.17 ± 0.12 ^+
- REM bout duration (6 h Average, 3 mg/kg ip): 1.28 ± 0.14^+
- W bout duration (6 h Average, 3 mg/kg ip): 4.29 ± 0.34
- NR bout duration (6 h Average, 10 mg/kg ip): 1.00 ±0.12 ^+
- REM bout duration (6 h Average, 10 mg/kg ip): 1.24 ±0.14^+
- W bout duration (6 h Average, 10 mg/kg ip): 4.19 ±0.30
- NR bout duration (6 h Average, 30 mg/kg ip): 1.18 ± 0.12 ^+
- REM bout duration (6 h Average, 30 mg/kg ip): 1.05 ± 0.08^+
- W bout duration (6 h Average, 30 mg/kg ip): 3.87 ± 0.21
- Number of NR bouts (6 h Total, 3 mg/kg ip): 72.88 ± 5.37
- Number of REM bouts (6 h Total, 3 mg/kg ip): 15.25 ±2.54
- Number of W bouts (6 h Total, 3 mg/kg ip): 61.5 ±5.45
- Number of NR bouts (6 h Total, 10 mg/kg ip): 76.13 ± 4.99
- Number of REM bouts (6 h Total, 10 mg/kg ip): 14.38 ± 1.55
- Number of W bouts (6 h Total, 10 mg/kg ip): 64.13 ± 3.89
- Number of NR bouts (6 h Total, 30 mg/kg ip): 71.38 ± 2.20
- Number of REM bouts (6 h Total, 30 mg/kg ip): 19.25 ± 1.50*^+
- Number of W bouts (6 h Total, 30 mg/kg ip): 65.38 ± 3.54
- NR during the subsequent light period (in words) (ZT3, 10 and 30 mg/kg ip, vs vehicle): NR decreased
- NR bout duration (ZT19, 3 mg/kg ip): 1.02 ± 0.14^+
- Number of NR bouts (ZT19, 3 mg/kg ip): 4.63 ± 2.07
- Number of REM bouts (ZT19, 3 mg/kg ip): 0.50 ± 0.33
- Number of W bouts (ZT19, 3 mg/kg ip): 2.88 ± 0.93
- REM bout duration (ZT19, 3 mg/kg ip): 1.21 ± 0.38^+
- W bout duration (ZT19, 3 mg/kg ip): 31.21 ± 8.79
- NR bout duration (ZT19, 10 mg/kg ip): 1.56 ± 0.59
- Number of NR bouts (ZT19, 10 mg/kg ip): 7.88 ± 2.52
- Number of REM bouts (ZT19, 10 mg/kg ip): 1.00 ± .050
- Number of W bouts (ZT19, 10 mg/kg ip): 6.25 ± 1.78
- REM bout duration (ZT19, 10 mg/kg ip): 0.95 ± 0.09
- W bout duration (ZT19, 10 mg/kg ip): 16.83 ± 6.40
- NR bout duration (ZT19, 30 mg/kg ip): 1.29 ± 0.24
- Number of NR bouts (ZT19, 30 mg/kg ip): 7.75 ± 1.93
- Number of REM bouts (ZT19, 30 mg/kg ip): 1.50 ± 0.46
- Number of W bouts (ZT19, 30 mg/kg ip): 5.75 ± 1.10
- REM bout duration (ZT19, 30 mg/kg ip): 1.04 ± 0.27
- W bout duration (ZT19, 30 mg/kg ip): 13.73 ± 6.71
- NR bout duration (ZT20, 3 mg/kg ip): 1.29 ± 0.15^+
- Number of NR bouts (ZT20, 3 mg/kg ip): 16.25 ± 2.43
- Number of REM bouts (ZT20, 3 mg/kg ip): 4.38 ± 1.21
- Number of W bouts (ZT20, 3 mg/kg ip): 12.25 ± 2.06
- REM bout duration (ZT20, 3 mg/kg ip): 1.34 ± 0.16^+
- W bout duration (ZT20, 3 mg/kg ip): 3.39 ± 0.78
- NR bout duration (ZT20, 10 mg/kg ip): 1.14 ± 0.12^+
- Number of NR bouts (ZT20, 10 mg/kg ip): 17.50 ± 3.34
- Number of REM bouts (ZT20, 10 mg/kg ip): 4.38 ± 1.19
- Number of W bouts (ZT20, 10 mg/kg ip): 13.88 ± 2.94
- REM bout duration (ZT20, 10 mg/kg ip): 1.16 ± 0.14^+
- W bout duration (ZT20, 10 mg/kg ip): 9.58 ± 7.23
- NR bout duration (ZT20, 30 mg/kg ip): 1.41 ± 0.26^+
- Number of NR bouts (ZT20, 30 mg/kg ip): 13.75 ± 1.79
- Number of REM bouts (ZT20, 30 mg/kg ip): 3.88 ± 0.99
- Number of W bouts (ZT20, 30 mg/kg ip): 12.63 ± 1.53
- REM bout duration (ZT20, 30 mg/kg ip): 1.27 ± 0.14^+
- W bout duration (ZT20, 30 mg/kg ip): 3.30 ± 0.88
- NR bout duration (ZT21, 3 mg/kg ip): 1.45 ± 0.28
- Number of NR bouts (ZT21, 3 mg/kg ip): 20.75 ± 2.40
- Number of REM bouts (ZT21, 3 mg/kg ip): 5.63 ± 0.65
- Number of W bouts (ZT21, 3 mg/kg ip): 16.38 ± 1.96
- REM bout duration (ZT21, 3 mg/kg ip): 1.28 ± 0.18
- W bout duration (ZT21, 3 mg/kg ip): 1.44 ± 0.20
- NR bout duration (ZT21, 10 mg/kg ip): 1.13 ± 0.25
- Number of NR bouts (ZT21, 10 mg/kg ip): 18.13 ± 2.03
- Number of REM bouts (ZT21, 10 mg/kg ip): 3.75 ± 0.82
- Number of W bouts (ZT21, 10 mg/kg ip): 14.88 ± 1.83
- REM bout duration (ZT21, 10 mg/kg ip): 1.38 ± 0.21
- W bout duration (ZT21, 10 mg/kg ip): 2.72 ± 0.50
- NR bout duration (ZT21, 30 mg/kg ip): 1.27 ± 0.16
- Number of NR bouts (ZT21, 30 mg/kg ip): 16.75 ± 2.30
- Number of REM bouts (ZT21, 30 mg/kg ip): 5.63 ± 1.10
- Number of W bouts (ZT21, 30 mg/kg ip): 13.00 ± 1.90
- REM bout duration (ZT21, 30 mg/kg ip): 1.04 ± 0.11
- W bout duration (ZT21, 30 mg/kg ip): 2.98 ± 0.68
- NR bout duration (in words) (ZT21 at 30 mg/kg and ZT24 at 3 mg/kg): increased NR bout duration
- NR bout duration (ZT22, 3 mg/kg ip): 0.82 ± 0.13
- Number of NR bouts (ZT22, 3 mg/kg ip): 12.75 ± 2.22
- Number of REM bouts (ZT22, 3 mg/kg ip): 2.75 ± 1.10
- Number of W bouts (ZT22, 3 mg/kg ip): 13.38 ± 2.85
- REM bout duration (ZT22, 3 mg/kg ip): 1.10 ± 0.27
- W bout duration (ZT22, 3 mg/kg ip): 6.85 ± 3.36
- NR bout duration (ZT22, 10 mg/kg ip): 0.86 ± 0.10
- Number of NR bouts (ZT22, 10 mg/kg ip): 17.13 ± 2.47
- Number of REM bouts (ZT22, 10 mg/kg ip): 3.13 ± 0.67
- Number of W bouts (ZT22, 10 mg/kg ip): 14.13 ± 1.81
- REM bout duration (ZT22, 10 mg/kg ip): 1.16 ± 0.25
- W bout duration (ZT22, 10 mg/kg ip): 3.15 ± 0.53
- NR bout duration (ZT22, 30 mg/kg ip): 1.19 ± 0.23
- Number of NR bouts (ZT22, 30 mg/kg ip): 13.13 ± 2.17
- Number of REM bouts (ZT22, 30 mg/kg ip): 3.38 ± 1.03
- Number of W bouts (ZT22, 30 mg/kg ip): 16.00 ± 2.00
- REM bout duration (ZT22, 30 mg/kg ip): 1.25 ± 0.22
- W bout duration (ZT22, 30 mg/kg ip): 2.75 ± 0.54
- NR bout duration (ZT23, 3 mg/kg ip): 0.77 ± 0.08
- Number of NR bouts (ZT23, 3 mg/kg ip): 10.50 ± 2.01
- Number of REM bouts (ZT23, 3 mg/kg ip): 1.00 ± 0.42
- Number of W bouts (ZT23, 3 mg/kg ip): 9.00 ± 1.66
- REM bout duration (ZT23, 3 mg/kg ip): 0.63 ± 0.29
- W bout duration (ZT23, 3 mg/kg ip): 6.72 ± 1.58
- NR bout duration (ZT23, 10 mg/kg ip): 0.77 ± 0.13
- Number of NR bouts (ZT23, 10 mg/kg ip): 9.88 ± 1.88
- Number of REM bouts (ZT23, 10 mg/kg ip): 1.50 ± 0.63
- Number of W bouts (ZT23, 10 mg/kg ip): 8.88 ± 1.59
- REM bout duration (ZT23, 10 mg/kg ip): 1.12 ± 0.34
- W bout duration (ZT23, 10 mg/kg ip): 11.56 ± 6.94
- NR bout duration (ZT23, 30 mg/kg ip): 0.80 ± 0.14
- Number of NR bouts (ZT23, 30 mg/kg ip): 8.88 ± 2.17
- Number of REM bouts (ZT23, 30 mg/kg ip): 2.75 ± 1.08
- Number of W bouts (ZT23, 30 mg/kg ip): 8.38 ± 2.00
- REM bout duration (ZT23, 30 mg/kg ip): 0.75 ± 0.17
- W bout duration (ZT23, 30 mg/kg ip): 12.52 ± 6.85
- NR bout duration (ZT24, 3 mg/kg ip): 1.40 ± 0.24
- Number of NR bouts (ZT24, 3 mg/kg ip): 7.63 ± 2.02
- Number of REM bouts (ZT24, 3 mg/kg ip): 1.00 ± 0.42
- Number of W bouts (ZT24, 3 mg/kg ip): 7.00 ± 1.60
- REM bout duration (ZT24, 3 mg/kg ip): 1.13 ± 0.39
- W bout duration (ZT24, 3 mg/kg ip): 14.70 ± 7.18
- NR bout duration (ZT24, 10 mg/kg ip): 0.99 ± 0.18
- Number of NR bouts (ZT24, 10 mg/kg ip): 5.38 ± 1.45
- Number of REM bouts (ZT24, 10 mg/kg ip): 0.63 ± 0.26
- Number of W bouts (ZT24, 10 mg/kg ip): 5.25 ± 1.22
- REM bout duration (ZT24, 10 mg/kg ip): 0.48 ± 0.16^+
- W bout duration (ZT24, 10 mg/kg ip): 16.01 ± 6.44
- NR bout duration (ZT24, 30 mg/kg ip): 1.05 ± 0.12
- Number of NR bouts (ZT24, 30 mg/kg ip): 10.88 ± 1.90
- Number of REM bouts (ZT24, 30 mg/kg ip): 2.13 ± 0.55
- Number of W bouts (ZT24, 30 mg/kg ip): 8.63 ±1.29
- REM bout duration (ZT24, 30 mg/kg ip): 0.81 ± 0.12
- W bout duration (ZT24, 30 mg/kg ip): 5.39 ± 6.44
- Tcore (in words) (high concentration tested, across 6 h): decreased Tcore
